Data taken from patent US20240051960A1, “SPIROCYCLIC IMIDAZOLIDINONES AND IMIDAZOLIDINEDIONES FOR TREATMENT OF LIGHT CHAIN AMYLOIDOSIS” (Protego Biopharma, Inc., priority 2021, published 2024).

System: Recombinant amyloidogenic full length light chain protein WIL-FL T46L
Test: Differential Scanning Fluorimetry (thermal shift) assay
Assay type: binding
Settings: protein and compounds incubated at RT for 30 min before adding the dye, Thermal Shift Protein Stability Kit, 96-well plates
Experimental: Differential Scanning Fluorimetry Assay
The stabilization effects the compounds have on the immunoglobulin light chain protein is quantitively measured using a thermal shift assay. Recombinant amyloidogenic full length light chain protein WIL-FL T46L is produced in E. coli, purified, and used in the assay. The Thermal Shift Protein Stability Kit from Biotium is used and the assay is done in 96-well Plates following the manufacture's instructions. The protein and compounds are incubated at RT for 30 min before adding the dye and subjected to the thermal shift assay. The thermal stability of each sample is then determined using standard curve fitting methods.
Compounds that induce shifts in the ranges below are listed in the table below: • 0-0.5° C.=* • >0.5-1° C.=** • >1-1.5° C.=*** • >1.5° C.=****

O=C(CN1C(=O)NC2(CCN(c3c[nH]c(=O)[nH]c3=O)CC2)C1=O)Nc1ccc(C(F)(F)F)cc1 [Compound 90]
Thermal Shift: **** (>1.5° C.=****)
